Data from PMC11476761, “Investigation of the Pharmacodynamic Components of Gastrodia elata Blume for Treatment of Type 2 Diabetes Mellitus through HPLC, Bioactivity, Network Pharmacology and Molecular Docking” (International Journal of Molecular Sciences, 2024).

What was measured:
Experiment in all cases: PNPG hydrolysis, absorbance at […] nm
Type in all cases: biochemical
α-glucosidase [1] = target: T1, α-glucosidase; settings: PNPG substrate, 0.2 U/mL enzyme, pH 6.8, 10 min
T1 construct: gene MAL12; pNPG assay at pH 6.8 as usual for the yeast enzyme

α-glucosidase [2] = system: T1, α-glucosidase; settings: PNPG substrate, 0.2 U/mL enzyme, pH 6.8, 10 min; unreliable: text b23 swaps the parishin B and C values
α-glucosidase [3] = system: T1, α-glucosidase; settings: PNPG substrate, 0.2 U/mL enzyme, pH 6.8, 10 min; unreliable: text b23 swaps the parishin B and C values; remark: listed apart in the source

## OCc1ccc(O[C@@H]2O[C@H](CO)[C@@H](O)[C@H](O)[C@H]2O)cc1 [GAS]
α-glucosidase [1]
  GAS: 1.23 ± 0.09 mg/mL

## OCc1ccc(O)cc1 [HBA]
α-glucosidase [1]
  HBA: 0.16 ± 0.03 mg/mL

## O=C(CC(O)(CC(=O)OCc1ccc(O[C@@H]2O[C@H](CO)[C@@H](O)[C@H](O)[C@H]2O)cc1)C(=O)OCc1ccc(O[C@@H]2O[C@H](CO)[C@@H](O)[C@H](O)[C@H]2O)cc1)OCc1ccc(O[C@@H]2O[C@H](CO)[C@@H](O)[C@H](O)[C@H]2O)cc1 [Parishin A]
α-glucosidase [1]
  Parishin A: 0.24 ± 0.05 mg/mL

## O=C(O)CC(O)(CC(=O)OCc1ccc(O[C@@H]2O[C@H](CO)[C@@H](O)[C@H](O)[C@H]2O)cc1)C(=O)OCc1ccc(O[C@@H]2O[C@H](CO)[C@@H](O)[C@H](O)[C@H]2O)cc1 (stereo partly drawn) [Parishin B]
α-glucosidase [2]
  Parishin B: 0.13 ± 0.03 mg/mL

## O=C(CC(O)(CC(=O)OCc1ccc(O[C@@H]2O[C@H](CO)[C@@H](O)[C@H](O)[C@H]2O)cc1)C(=O)O)OCc1ccc(O[C@@H]2O[C@H](CO)[C@@H](O)[C@H](O)[C@H]2O)cc1 [Parishin C]
α-glucosidase [3]
  Parishin C: 0.19 ± 0.03 mg/mL

## O=C(O)CC(O)(CC(=O)OCc1ccc(O[C@@H]2O[C@H](CO)[C@@H](O)[C@H](O)[C@H]2O)cc1)C(=O)O (stereo partly drawn) [Parishin E]
α-glucosidase [1]
  Parishin E: 0.54 ± 0.04 mg/mL
